Assay results from PubChem BioAssay (NCI).
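Compound exposure: 48 hours, 5 concentrations, 96-well plates. TGI: concentration producing complete growth inhibition.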

Experiments:
Test in all cases: NCI-60 cell line screen, 48 h
786-0 renal = test system: 786-0 renal
A549 NSCLC = test system: A549 NSCLC
ACHN renal = test system: ACHN renal
CAKI-1 renal = test system: CAKI-1 renal
CCRF-CEM leukemia = test system: CCRF-CEM leukemia
COLO 205 colon = test system: COLO 205 colon
DLD-1 colon = test system: DLD-1 colon
DMS 273 small cell lung = test system: DMS 273 small cell lung
EKVX NSCLC = test system: EKVX NSCLC
HCC-2998 colon = test system: HCC-2998 colon
HCT-116 colon = test system: HCT-116 colon
HCT-15 colon = test system: HCT-15 colon
HL-60(TB) leukemia = test system: HL-60(TB) leukemia
HOP-18 NSCLC = test system: HOP-18 NSCLC
HOP-62 NSCLC = test system: HOP-62 NSCLC
HOP-92 NSCLC = test system: HOP-92 NSCLC
HT29 colon = test system: HT29 colon
IGROV1 ovarian = test system: IGROV1 ovarian
K-562 leukemia = test system: K-562 leukemia
KM12 colon = test system: KM12 colon
KM20L2 colon = test system: KM20L2 colon
LOX IMVI melanoma = test system: LOX IMVI melanoma
LXFL 529 NSCLC = test system: LXFL 529 NSCLC
M14 melanoma = test system: M14 melanoma
M19-MEL melanoma = test system: M19-MEL melanoma
MALME-3M melanoma = test system: MALME-3M melanoma
MOLT-4 leukemia = test system: MOLT-4 leukemia
NCI-H226 lung = test system: NCI-H226 lung
NCI-H460 lung = test system: NCI-H460 lung
OVCAR-3 ovarian = test system: OVCAR-3 ovarian
OVCAR-4 ovarian = test system: OVCAR-4 ovarian
OVCAR-5 ovarian = test system: OVCAR-5 ovarian
OVCAR-8 ovarian = test system: OVCAR-8 ovarian
RPMI-8226 leukemia = test system: RPMI-8226 leukemia
RXF 393 renal = test system: RXF 393 renal
RXF-631 renal = test system: RXF-631 renal
SF-295 CNS = test system: SF-295 CNS
SK-MEL-2 melanoma = test system: SK-MEL-2 melanoma
SK-MEL-28 melanoma = test system: SK-MEL-28 melanoma
SK-MEL-5 melanoma = test system: SK-MEL-5 melanoma
SK-OV-3 ovarian = test system: SK-OV-3 ovarian
SN12C renal = test system: SN12C renal
SNB-75 CNS = test system: SNB-75 CNS
SNB-78 CNS = test system: SNB-78 CNS
SW-620 colon = test system: SW-620 colon
TK-10 renal = test system: TK-10 renal
U251 CNS = test system: U251 CNS
UACC-257 melanoma = test system: UACC-257 melanoma
UACC-62 melanoma = test system: UACC-62 melanoma
UO-31 renal = test system: UO-31 renal
XF 498 CNS = test system: XF 498 CNS
A498 renal = test system: A498 renal
BT-549 breast = test system: BT-549 breast
DMS 114 small cell lung = test system: DMS 114 small cell lung
DU-145 prostate = test system: DU-145 prostate
HS 578T breast = test system: HS 578T breast
MCF7 breast = test system: MCF7 breast
MDA-MB-231 breast = test system: MDA-MB-231 breast
MDA-N = test system: MDA-N
NCI-H23 lung = test system: NCI-H23 lung
NCI-H522 lung = test system: NCI-H522 lung
NCI/ADR-RES ovarian = test system: NCI/ADR-RES ovarian
PC-3 prostate = test system: PC-3 prostate
SF-268 CNS = test system: SF-268 CNS
SF-539 CNS = test system: SF-539 CNS
SNB-19 CNS = test system: SNB-19 CNS
SR leukemia = test system: SR leukemia
T-47D breast = test system: T-47D breast

`N#Cc1c(-c2ccc(Cl)c(Cl)c2)c(-c2ccc(Cl)c(Cl)c2)nn(CC(=O)O)c1=O` showed a TGI (786-0 renal) greater than 100 µM, a TGI (A549 NSCLC) greater than 100 µM and a TGI (ACHN renal) greater than 100 µM. It also gave a TGI (CAKI-1 renal) greater than 100 µM, a TGI (CCRF-CEM leukemia) greater than 100 µM and a TGI (COLO 205 colon) greater than 100 µM. The TGI (DLD-1 colon) was greater than 100 µM, the TGI (DMS 273 small cell lung) was greater than 100 µM and the TGI (EKVX NSCLC) was greater than 100 µM. For the same molecule, the TGI (HCC-2998 colon) was greater than 100 µM, the TGI (HCT-116 colon) was greater than 100 µM and the TGI (HCT-15 colon) was greater than 100 µM. The TGI (HL-60(TB) leukemia) was greater than 100 µM, the TGI (HOP-18 NSCLC) was greater than 100 µM and the TGI (HOP-62 NSCLC) was greater than 100 µM. The TGI (HOP-92 NSCLC) was greater than 100 µM, the TGI (HT29 colon) was greater than 100 µM and the TGI (IGROV1 ovarian) was greater than 100 µM. It also gave a TGI (K-562 leukemia) greater than 100 µM, a TGI (KM12 colon) greater than 100 µM and a TGI (KM20L2 colon) of 56.8 µM. The TGI (LOX IMVI melanoma) was greater than 100 µM, the TGI (LXFL 529 NSCLC) was greater than 100 µM and the TGI (M14 melanoma) was greater than 100 µM. For the same molecule, the TGI (M19-MEL melanoma) was greater than 100 µM, the TGI (MALME-3M melanoma) was greater than 100 µM and the TGI (MOLT-4 leukemia) was greater than 100 µM. The TGI (NCI-H226 lung) was greater than 100 µM, the TGI (NCI-H460 lung) was greater than 100 µM and the TGI (OVCAR-3 ovarian) was 77.4 µM. For the same molecule, the TGI (OVCAR-4 ovarian) was greater than 100 µM, the TGI (OVCAR-5 ovarian) was greater than 100 µM and the TGI (OVCAR-8 ovarian) was greater than 100 µM. For the same molecule, the TGI (RPMI-8226 leukemia) was greater than 100 µM, the TGI (RXF 393 renal) was 53.9 µM and the TGI (RXF-631 renal) was greater than 100 µM. It also gave a TGI (SF-295 CNS) greater than 100 µM, a TGI (SK-MEL-2 melanoma) greater than 100 µM and a TGI (SK-MEL-28 melanoma) greater than 100 µM. It also gave a TGI (SK-MEL-5 melanoma) greater than 100 µM, a TGI (SK-OV-3 ovarian) greater than 100 µM and a TGI (SN12C renal) greater than 100 µM. The TGI (SNB-75 CNS) was greater than 100 µM, the TGI (SNB-78 CNS) was greater than 100 µM and the TGI (SW-620 colon) was greater than 100 µM. The TGI (TK-10 renal) was greater than 100 µM, the TGI (U251 CNS) was greater than 100 µM and the TGI (UACC-257 melanoma) was greater than 100 µM. It also gave a TGI (UACC-62 melanoma) greater than 100 µM, a TGI (UO-31 renal) greater than 100 µM and a TGI (XF 498 CNS) of 98.4 µM.

`CC(=O)O[C@H]1C(=O)[C@@]2(C)C(C(OC(=O)c3ccccc3)[C@]3(O)C[C@H](OC(=O)C(OC(=O)CCCC(=O)NCCCN(C)C)C(NC(=O)c4ccccc4)c4ccccc4)C(C)=C1C3(C)C)C1(OC(C)=O)COC1C[C@@H]2O` (some centres undefined) gave a TGI (786-0 renal) of 11 µM, a TGI (A498 renal) of 45.6 µM and a TGI (A549 NSCLC) greater than 85.3 µM. It also gave a TGI (ACHN renal) greater than 100 µM, a TGI (BT-549 breast) of 31.9 µM and a TGI (CAKI-1 renal) greater than 100 µM. It also gave a TGI (CCRF-CEM leukemia) of 9.58 µM, a TGI (COLO 205 colon) of 0.0147 µM and a TGI (DLD-1 colon) greater than 40.9 µM. For the same molecule, the TGI (DMS 114 small cell lung) was less than 0.01 µM, the TGI (DMS 273 small cell lung) was 0.553 µM and the TGI (DU-145 prostate) was 0.0666 µM. It also gave a TGI (EKVX NSCLC) greater than 100 µM, a TGI (HCC-2998 colon) of 0.0309 µM and a TGI (HCT-116 colon) of 1.53 µM. It also gave a TGI (HCT-15 colon) of 19.2 µM, a TGI (HL-60(TB) leukemia) of 0.0832 µM and a TGI (HOP-18 NSCLC) of 35 µM. The TGI (HOP-62 NSCLC) was 11.4 µM, the TGI (HOP-92 NSCLC) was 37.2 µM and the TGI (HS 578T breast) was 0.0151 µM. The TGI (HT29 colon) was 2.22 µM, the TGI (IGROV1 ovarian) was 59 µM and the TGI (K-562 leukemia) was 45.4 µM. It also gave a TGI (KM12 colon) of 3.19 µM, a TGI (KM20L2 colon) of less than 0.01 µM and a TGI (LOX IMVI melanoma) of 19.2 µM. It also gave a TGI (LXFL 529 NSCLC) of 20.9 µM, a TGI (M14 melanoma) of 25 µM and a TGI (M19-MEL melanoma) of 17.3 µM. The TGI (MALME-3M melanoma) was 20.8 µM, the TGI (MCF7 breast) was 48.5 µM and the TGI (MDA-MB-231 breast) was 13.8 µM. It also gave a TGI (MDA-N) of less than 0.01 µM, a TGI (MOLT-4 leukemia) of 12.5 µM and a TGI (NCI-H226 lung) of 39.1 µM. For the same molecule, the TGI (NCI-H23 lung) was 18.2 µM, the TGI (NCI-H460 lung) was 8.71 µM and the TGI (NCI-H522 lung) was less than 0.0105 µM. For the same molecule, the TGI (NCI/ADR-RES ovarian) was 70.7 µM, the TGI (OVCAR-3 ovarian) was less than 0.01 µM and the TGI (OVCAR-4 ovarian) was greater than 87.9 µM. The TGI (OVCAR-5 ovarian) was 13.1 µM, the TGI (OVCAR-8 ovarian) was 15.3 µM and the TGI (PC-3 prostate) was 43 µM. The TGI (RPMI-8226 leukemia) was 28.7 µM, the TGI (RXF 393 renal) was 3.27 µM and the TGI (RXF-631 renal) was greater than 100 µM. For the same molecule, the TGI (SF-268 CNS) was 75.3 µM, the TGI (SF-295 CNS) was 1.28 µM and the TGI (SF-539 CNS) was 0.0184 µM. For the same molecule, the TGI (SK-MEL-2 melanoma) was 24.3 µM, the TGI (SK-MEL-28 melanoma) was 55.5 µM and the TGI (SK-MEL-5 melanoma) was 18.6 µM. For the same molecule, the TGI (SK-OV-3 ovarian) was 1.45 µM, the TGI (SN12C renal) was 75.5 µM and the TGI (SNB-19 CNS) was greater than 100 µM. For the same molecule, the TGI (SNB-75 CNS) was 0.021 µM, the TGI (SNB-78 CNS) was 96.8 µM and the TGI (SR leukemia) was 58.2 µM. For the same molecule, the TGI (SW-620 colon) was 22.4 µM, the TGI (T-47D breast) was 47.8 µM and the TGI (TK-10 renal) was 33.3 µM. It also gave a TGI (U251 CNS) of 20.8 µM, a TGI (UACC-257 melanoma) of 33.5 µM and a TGI (UACC-62 melanoma) of 7 µM. It also gave a TGI (UO-31 renal) of 64 µM and a TGI (XF 498 CNS) of less than 0.0171 µM.
